Counter-ions that a name gives are not always drawn.
Legend:
[1] = system: rats; experiment: Catalepsy in rats, “piano” test, oral administration; assay type: in vivo, rat
Method: To this end, the induced catalepsy, the prolactin blood levels and the animal behavior were measured as described hereinabove, following oral administration of either AN 168 or perphenazine alone to rats. Animals, divided 5 per cage, were treated by oral administration of perphenazine or AN-168 dissolved in 1% lactic acid. Control animals received vehicle (lactic acid) only.
The catalepsy induced by oral administration of various concentrations of AN 168 and perphenazine was measured by the “wall” test and the “piano” test described hereinabove. The time course of catalepsy was measured 4-24 hours following oral administration of 2.5, 5, 10 and 20 mg/kg perphenazine and respective equimolar doses of 3.5, 7, 14 and 28 mg/kg AN-168. The total catalepsy represents the sum of average catalepsy per treated group during the 4-24 hours of follow-up.

[2] = system: mice; experiment: Catalepsy in mice (bar between two cages); assay type: in vivo, mouse
Method: Young adult male and female mice were purchased from Harlan, Israel. The animals were housed for 4-7 days under controlled conditions prior to experimentation. Experiments were conducted in a double blind procedure. In each experiment various treatment groups (about 10 animals each) were tested.
Catalepsy in mice: The appearance of stereotypic cataleptic behavior in mice following the neuroleptic treatment was measured in two different sets of experiments.
The catalepsy was determined using a system of two cages and a bar therebetween. The mouse was hung in the middle of the bar, and the percentage of animals reaching the target within 2 minutes was monitored 1 hour, 2 hours and 3 hours following the treatment.
The catalepsy was determined using the system described hereinabove. The mouse was hung in the middle of the bar, and the time it took the animal to reach the target was measured.

[3] = system: HL 60 MX2 (MDR); experiment: Proliferation test, HL 60 MX2 (MDR) cells; assay type: cell-based; settings: Homo sapiens, HL60/MX2; linear regression of survival percentage
Method: (§1) Cell lines: Human prostate carcinoma (PC-3), human colon carcinoma (HT-29), murine melanoma (B-16) and its drug resistant subclone (B-16 MDR), mouse fibroblasts (3T3), myeloid leukemia (HL 60) and its drug resistant subclone (HL 60 MX2), endometrium cell line (MES SA) and its drug resistant subclone (MES DX5), jurkat T lymphoma and monocyte leukemia (U-937), were used in this study.
(§2) Proliferation of cancer and normal cells: Proliferation was measured by neutral red assay or by a fluorometric assay quantitating DNA content. In the neutral red assay, the neutral red is absorbed by lysosomes, thus causing coloring of living cells. Quantitative analysis is performed by colorimetric assay (ELISA reader at 550 nm). In the fluorometric assay, alamar blue is used as a redox indicator. Alamar blue fluorescence was measured at an excitation wavelength of 544 nm and an emission wavelength of […] (FLUOstar BMG Lab Technologies, Offenburg, Germany).
(§3) The cells were sub-cultured and the tested compounds were added thereto in increasing concentrations. The IC50 values were determined by linear regression of the survival percentage of the cells.

[4] = system: prolactin; experiment: Prolactin blood level in rats (enzyme immunometric assay); assay type: in vivo, rat
Description: Prolactin secretion: Typical neuroleptics induce hyperprolactinemia, which is frequently associated with gallactorehea and impaired gonadal and sexual function. The measurement of the circulatory plasma prolactin level was therefore used as a sensitive biochemical marker for the psychotropic activity of the known neuroleptics and the chemical conjugates of the present invention, following intraperitoneal or oral administration thereof. Thus, blood was collected from the punctured eye orbital of rats under ether anesthesia and the assay was performed using Millennia, rat prolactin enzyme immunometric assay-kit (DPC, USA).

[5] = Stability upon prolonged storage (NMR); assay type: physicochemical; settings: about 3 months storage; NMR spectroscopy
[6] = system: 3T3; experiment: Proliferation test, 3T3 fibroblasts; assay type: cell-based; settings: Mus musculus, NIH3T3; linear regression of survival percentage
Method: as §1, §2, §3

[7] = system: Normal rat fibroblasts; experiment: Proliferation test, normal rat fibroblasts; assay type: cell-based; settings: Fibroblast, linear regression of survival percentage
Method: The primary cultures of rat fibroblasts were obtained from neonatal rats using known procedures.
as §2, §3

[8] = system: C6 rat glioma cells; experiment: Viability of C6 rat glioma cells (neutral red); assay type: cell-based
Method: as §2
The cells were sub-cultured and the tested compounds were added thereto in increasing concentrations, up to 100 μM.

[9] = system: U-937; experiment: Proliferation test, U-937 cells; assay type: cell-based; settings: Homo sapiens, linear regression of survival percentage
Method: as §1, §2, §3

[10] = system: C6 rat glioma cells; experiment: Chemosensitization in C6 rat glioma cells; assay type: cell-based
Method: Chemosensitization: The chemosensitizing effect of perphenazine and its chemical conjugate AN 168 was measured in vitro. Various concentrations of perphenazine or AN 168 were co-administered together with a chemotherapeutic agent to either C6 rat glioma cells or to Jurkat T lymphoma cells. Cells viability and/or DNA fragmentation following treatment with either the chemotherapeutic agent, perphenazine, AN 168, a combination of the chemotherapeutic agent and perphenazine or a combination of a chemotherapeutic agent with AN 168 were measured as described hereinabove.

[11] = system: C6 rat glioma cells; experiment: DNA fragmentation in C6 rat glioma cells (propidium iodide flow cytometry); assay type: cell-based; settings: Cisplatin 30 μM; perphenazine 25 and 50 μM; AN 168 25, 50 μM (FIG. 18)
Method: Apoptosis and DNA fragmentation: Fragmentation of cell nuclei was studied by flow cytometric analysis of propidium iodide-stained cells. This analysis was performed using a FACScan (Becton Dickinson, Mountain View, Calif.) equipped with an argon ion laser adjusted to an excitation wavelength of 480 nm and with a Doublet Discrimination Module (DDM). Lysis II (Becton Dickinson) software was used for data acquisition. Apoptotic nuclear changes were evaluated according to the criteria of Nicolletti et al..
The DNA fragmentation was determined by the propidium iodide flow cytometric method described hereinabove.

[12] = system: B16; experiment: Proliferation test, B16 melanoma cells; assay type: cell-based, murine
Method: as §1, §2, §3

[13] = system: rats; experiment: Behavioral criteria: sedation and mobility score in rats; settings: score 0-3; for Sedation score: oral, 4-6 hours after treatment
Method: The effect of the administration of the tested compound on animals behavior was measured by evaluating the degree of animal sedation and mobility following the treatment described hereinabove, using a score of from 0 to 3. A score of 0 represents active and mobile animals, 1 represents calm and mobile animals, 2 represents calm and immobile animals and 3 represents completely ataxic and non-alert animals.

[14] = C6 glioma (MDR) cells, 24 hours (FIG. 14)

## NCCCC(=O)OCCN1CCN(CCCN2c3ccccc3Sc3ccc(Cl)cc32)CC1 [AN-168, Perphenazine 4-aminobutyrate Trihydrochloride]
[1]; oral, 3.5-28 mg/kg AN 168 vs equimolar perphenazine, 4-6 hours (FIG. 8a)
  time course of catalepsy: consistent reduction in the cataleptic behavior at all concentrations
[1]; oral, 5, 10, 20 mg/kg perphenazine, 7, 14, 28 mg/kg AN-168, 4-6 hours (FIGS. 9a, 9b)
  total catalepsy: consistently lower than that induced by perphenazine
[1]; oral, 14 and 28 mg/kg AN 168, 4-6 hours (FIG. 8b)
  time course of catalepsy, experiments conducted 3 months later: higher catalepsy was induces as compared with the proceeding experiments
[2]; adult male mice, 1.5 mg/kg perphenazine or equimolar dose (FIG. 7a)
  catalepsy: percentage of animals reaching the target within 2 minutes: substantially lower disability
[2]; young female mice, 2.5 mg/kg perphenazine or equimolar dose, 2 and 3 hours after treatment (FIG. 7b)
  catalepsy: time it took the animals to reach the target: much faster than the animals treated with perphenazine alone
[3]
  IC50: 18.4 µM
[4]; i.p., measured at 0, 60 and 120 min after treatment
  time at which prolactin blood level peaked: 60 min
[4]; oral, higher dose, 0, 90, 180 min (FIG. 12)
  prolactin blood level compared with perphenazine: much higher as compared with animals treated with perphenazine
[5]
  stability upon prolonged storage: slow decomposition, probably due to hydrolysis, occurred
[6]
  IC50: 25 µM
[7]
  IC50: 45.8 µM
[8]; [14]
  anti-proliferative activity in C6 glioma cells: high anti-proliferative activity
  concentration causing substantial cell death: about 20 μM
[8]; Rattus norvegicus, Glioma cell, 24 hours treatment, neutral red, up to 100 μM (FIG. 14)
  IC50: 24.2 µM
[9]
  IC50: 14.2 µM
[10]; 24 hours, Vincistine 30 μM, conjugate even at 5 μM (FIG. 16)
  chemosensitizing effect, co-administration with Vincistine: substantially enhance the cytotoxic effect thereof
[10]; Cisplatin 5-50 μM plus 10 and 15 μM AN 168, neutral red (FIG. 17)
  cells viability, combined treatment of Cisplatin and AN 168: rendered the cells susceptible to the chemotherapeutic drug
[11]
  DNA fragmentation: induced a dramatically increase in DNA fragmentation
[12]; Mus musculus, B16, linear regression of survival percentage
  IC50: 26.8 ± 1.8 µM
[12]; representative experiment (FIG. 13)
  effect on the proliferation of B16 murine melanoma cells: relatively active as anti-proliferative drugs
[13]; i.p., 5 mg/kg perphenazine, 7.5 mg/kg fluphenazine or equimolar conjugate, 30 min
  sedation and mobility score, 30 min: 0
[13]; i.p., 5 mg/kg perphenazine, 7.5 mg/kg fluphenazine or equimolar conjugate, 60 min
  sedation and mobility score, 60 min: 0
[13]; i.p., 5 mg/kg perphenazine, 7.5 mg/kg fluphenazine or equimolar conjugate, 90 min
  sedation and mobility score, 90 min: 1
[13]; i.p., 5 mg/kg perphenazine, 7.5 mg/kg fluphenazine or equimolar conjugate, 120 min
  sedation and mobility score, 120 min: 1
[13]; i.p., 5 mg/kg perphenazine, 7.5 mg/kg fluphenazine or equimolar conjugate, 180 min
  sedation and mobility score, 180 min: 1
[13]; i.p., 5 mg/kg perphenazine, 7.5 mg/kg fluphenazine or equimolar conjugate, 240 min
  sedation and mobility score, 240 min: 1
[13]; 3.5 mg/kg
  Sedation score: 0
[13]; 7 mg/kg
  Sedation score: 0
[13]; 14 mg/kg
  Sedation score: 1
[13]; 28 mg/kg
  Sedation score: 2

— US8168628B2, “Conjugated psychotropic drugs and uses thereof” (Ramot at Tel-Aviv University Ltd., priority 2001, dated 2012)
